Results reported in the METLIN SMRT retention time set (Domingo-Almenara et al. 2019).

Experiment: gradient 5% acetonitrile 3 min, to 50% in 2 min, to 85% in 15 min, held 3 min, 100 µL/min
Settings: column: Zorbax Extend-C18 2.1 x 50 mm; eluents: water / acetonitrile, 0.1% formic acid
Summary of the method: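 Each retention time is based on an adduct peak selected computationally and verified by manual inspection. Measurements used HPLC–quadrupole time-of-flight mass spectrometry in positive and negative ionization mode on mixtures of ~100 pure standards. Chromatography ran on a Zorbax Extend-C18 column (2.1 × 50 mm, 1.8 μm) at 100 μL/min with water and acetonitrile, each containing 0.1% formic acid, and dead and dwell volumes of 40 μL and 900 μL.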

RP-LC retention time [s]	Structure (SMILES)
888	CCOc1ccc(NC(=O)C2CCN(S(=O)(=O)c3ccc4c(c3)NC(=O)C(CC)O4)CC2)cc1 (centres undefined)
660	COc1cccc(CNC(=O)C2CCc3nc(N4CCOCC4)ncc3C2)c1 (centres undefined)
656	O=C(CCC1CCN(c2cc(NC3CC3)ncn2)CC1)NCCc1cccs1
709	Cc1ccc(NC(=O)N2CCC(c3nc(C(=O)N4CCOCC4)c(C)o3)CC2)c(C)c1
906	CC1(C(=O)NC2CCN(c3ccc(=O)n(CCOc4ccccc4)n3)C2)CCCCC1 (centres undefined)
914	COc1ccc(NC(=O)C2CCCN(S(=O)(=O)c3cc(-c4noc(C)n4)cs3)C2)cc1 (centres undefined)
732	Cc1ccc(C)c(NC(=O)Cn2ncc3c(c2=O)N(C2CC2)C(=O)CS3)c1
659	COc1ccc(C(=O)N2CCC[C@H]2c2nc(-c3ccccc3)n[nH]2)cn1
1150	COc1cccc(C2Cn3nnc(-c4nc(-c5ccccc5Cl)no4)c3CO2)c1 (centres undefined)
1160	CCCNC(=O)C1CCN(c2ccc(SCC(=O)Nc3c(C)cccc3Cl)nn2)CC1
555	COCCC(=O)N1CCC(N2C(=O)C(OC)C23CCOCC3)CC1 (centres undefined)
577	COC(=O)c1c(C)[nH]c(C(=O)N2CCCC(C(=O)NCc3cccnc3)C2)c1C (centres undefined)
591	COCCn1c(C2CCN(S(=O)(=O)c3ccc(C)c(Cl)c3)C2)nc2ccncc21 (centres undefined)
735	COc1ccc(-c2nc(CN3CCCC3=O)no2)cc1
678	CCNC(=O)C1CCCN(C(=O)Nc2ccc(NC(=O)Nc3ccc(OC)cc3)cc2)C1 (centres undefined)
810	COCc1noc([C@@H]2CC(F)(F)CN2C(=O)C2CCCC2)n1
895	c1ccc2c(N3CCCCCC3)nnc(-c3nc(C4CC4)no3)c2c1
621	Cn1cc(-c2cc3n(n2)CCC(=O)N3CC(=O)NCCCN2CCCCCC2)c2ccccc21
735	CCOCCCNC(=O)N1CC(Oc2cccc(-c3nc(C)no3)c2)C1
675	O=C(Nc1ccc(F)cc1)N1CCCC(Cn2c(C3CC3)nc3cccnc32)C1 (centres undefined)
683	Cc1c(C2CCN(C(=O)NCc3ccc(F)cc3)CC2)noc1N
703	COc1ccc(Cc2nnc(C3CCN(C(=O)c4ccco4)CC3)s2)cc1
935	CCc1cc(=O)n(CC(=O)Nc2cc(Cl)ccc2OC)c(N2CCOCC2)n1
591	Cc1ccc(CNC(=O)N2CC(N(C3CCOCC3)S(C)(=O)=O)C2)cc1
900	Cc1nc(-c2ccc(NC(=O)N3CCCc4ccccc43)cc2)no1
797	Cc1cc(C)cc(NC(=O)Cn2ncc3c(c2=O)N(C2CC2)C(=O)CS3)c1
771	CC(C)(C)c1noc(-c2cccnc2-n2cnc(C(=O)NC3CCCCC3)c2)n1
710	Cc1ccc(CNC(=O)C2CCN(c3nnc(C)c4c(C)n(-c5ccccc5)nc34)CC2)o1
669	Cc1nnc(N2CCC(C(=O)N3CCOCC3)CC2)c2nn(-c3ccc(Cl)cc3)c(C)c12
719	COc1nccnc1N1CCC(N(C)C(=O)Cc2ccsc2)C1 (centres undefined)

The remaining lines, values behind:

Structure (SMILES)	RP-LC retention time [s]
CCc1nc(N)n(CC(=O)Nc2ccc(F)cc2C)c(=O)c1C	626
Cc1ccc(-c2noc(-c3cccc(S(=O)(=O)N4CCN(C)CC4)c3)n2)cc1	735
CCn1cc(C)c(C(=O)O)c1CC(=O)Nc1cc(C)cc(C)c1	907
O=C(Nc1ccc2c(c1)CN(C(=O)c1cccs1)CC2)c1ccccc1C(F)(F)F	821
Cc1ccc(CN2CCN(C3CCN(C(=O)Nc4ccc(F)c(Cl)c4)CC3)C(=O)C2=O)cc1	849
O=S(=O)(c1cccc(Cl)c1)N1CCc2nc(-c3ccccc3)ncc2C1	1170
COC(=O)c1ccc2nc(NC(=O)c3cc(C)oc3C)sc2c1	947
O=c1n(Cc2ccccc2)nc2ccc(S(=O)(=O)N3CCCC3)cn12	675
COC(=O)c1c(NCCc2ccccc2)c2cc(F)ccc2[nH]c1=O	791
COc1ccc(-c2csc(C)n2)cc1S(=O)(=O)N1CCN(c2cccc(C)c2C)CC1	1270
O=C(COc1ccccc1)NCCS(=O)(=O)N1CCN(c2cccc(Cl)c2)CC1	926
Cc1cc(C(=O)NC2CC2)c2cc(Cl)ccc2n1	669
Cc1ccc(C)c(NC(=O)C2CC(=O)N(CCc3c[nH]c4ccc(F)cc34)C2)c1 (centres undefined)	586
COc1ccc(-c2csc(C)n2)cc1S(=O)(=O)N1CC=C(c2ccccc2)CC1	1130
CCNC(=O)N1CCN(CCCC(c2ccc(F)cc2)c2ccc(F)cc2)CC1	766
O=C(CSc1nnc(-c2ccc(Br)cc2)o1)OCc1ccccc1	1150
O=S(=O)(Nc1ccc(F)cc1)c1ccc2c(c1)-c1oncc1CO2	866
COc1ccc(-c2nc3ncccn3c2NCc2ccc(C)cc2)cc1	756
O=C(O)c1cc(-c2ccncc2)nc2ccccc12	572
CCOCCCNC(=S)Nc1ccc2nc(N3CCN(CC)CC3)cc(C)c2c1	578

Structure (SMILES)	RP-LC retention time [s]
Cc1ccc(-c2noc(CSc3nccn3-c3ccc(C)cc3)n2)cc1	1020
CCc1noc2ncnc(NCCN(C)Cc3ccccc3)c12	595
Cc1ccccc1CN1CCN(CC(=O)N2CCN(Cc3ccccc3)CC2)C(=O)C1=O	609
Cc1cc(C)cc(NC(=O)Cn2cc(-c3nnc(C)o3)c3ccccc32)c1	903
CC(=O)N1CCc2cc(N3CC(C(=O)Nc4cc(C)ccc4F)CC3=O)ccc21 (centres undefined)	743
Cc1cc(NC(=O)c2ccccc2C(F)(F)F)sn1	713
c1ccc(-c2noc(-c3ccc(OC4CNC4)cc3)n2)cc1	674
COC(=O)C1=CN(C2CC2)c2cc(N3CCN(c4ccc(OC)cc4)CC3)c(F)cc2S1(=O)=O	856
COc1ccc(-c2nc3cnccn3c2Nc2ccc(C)c(Cl)c2)cc1OC	878
CCCn1c(=O)c(C)nc2cc(-c3noc(-c4ccc(OCC)cc4)n3)ccc21	1290
C=CCn1c(=O)c2ccccc2n(Cc2nc(-c3ccc4c(c3)OCO4)no2)c1=O	998
O=C(NCCn1nc(-c2cccs2)ccc1=O)c1ccc(-n2cccn2)nn1	685
COc1ccc(-c2c(C)noc2NC(C)=O)cc1S(=O)(=O)N1CCN(c2ncccn2)CC1	700
CCN(CC)C(=O)c1ccc2c(c1)N(CC(=O)NCCN1CCCCCC1)C(=O)CO2	603
Cc1nc2cc(N3CC(C(=O)NCc4ccc(Cl)cc4)CC3=O)ccc2o1 (centres undefined)	743
CN(C)CCCn1c2c3ccccc3ccc2c2oc(=O)c3ccccc3c21	802
COc1ccc(OC)c(CNC(=O)CN2C(=O)CSc3cccn3-c3ccccc32)c1	914
Cc1cccc(CCNC(=S)Nc2ccc3nc(N4CCN(C)CC4)cc(C)c3c2)c1	618
CCCCN(Cc1ccco1)C(=O)Cn1nc(Cc2ccncc2)c2ccccc2c1=O	679
CCOC(=O)c1[nH]c(C)c(CN(Cc2ccco2)C(=O)c2ccc3c(c2)OCO3)c1C	935

Structure (SMILES)	RP-LC retention time [s]
Cc1nc(CC(=O)Nc2ccc(F)cc2Cl)cs1	845
COCCCNC(=O)c1nn(-c2ccc(Cl)cc2)c2c(=O)n(C)cnc12	716
Cc1ccc(S(=O)(=O)N2CC3CN(C(=O)c4cccn4C)CC(C2)O3)cc1	807
CCc1nn2c(CNS(=O)(=O)c3ccc(Cl)cc3)c(-c3ccccc3)nc2s1	1000
CC(=O)N1CCc2cc(-c3ccc(C(=O)NCCN4CCCC4)cc3)ccc21	607
O=C(Nc1ccc(F)cc1F)C1CC(=O)N(CCc2c[nH]c3ccc(F)cc23)C1 (centres undefined)	784
CCOc1ccc(C(=O)N2CCC(n3c(-c4ccoc4)nc4cccnc43)C2)cc1 (centres undefined)	756
Cc1ccccc1Cn1cnc2c(cnn2CCNC(=O)Cn2cnc3ccccc32)c1=O	578
O=[N+]([O-])c1cccc2cn[nH]c12	767
Cn1c(=O)c(C(=O)N2CCN(c3ccccn3)CC2)nc2ccccc21	1310
CCCCN(CC)c1nc(C)nc2c1c(C)cn2-c1c(C)cc(C)cc1C	945
Cc1ccccc1CN1N=C(C(=O)N2CCCCC2)S(=O)(=O)c2ccccc21	1010
Cc1cccc(N2C(=O)NC3CC2(C)Oc2ccccc23)c1 (centres undefined)	852
Cc1ccc(-c2nc3nc(C)cc(N(CCO)CCO)n3n2)cc1	614
CCCn1cc(CCNS(=O)(=O)c2ccc(C)c(C)c2)c2cccnc21	923
CC(C)S(=O)(=O)c1cc2c(cc1NC(=O)c1ccccc1C(F)(F)F)n(C)c(=O)n2C	853
Cc1nc(-c2ccc3c(c2)n(CC(=O)N2c4ccccc4CC2C)c(=O)n3C(C)C)no1 (centres undefined)	989
O=C(NCC1(c2cccs2)CC1)c1cnccn1	736
C[C@@H](NC(=O)c1cccc(Br)c1)C(=O)NCc1cscn1	665
